Laboratory results from patent publication US20250101436A1, “APTAMERS AND SMALL MOLECULE LIGANDS” (MeiraGTx UK II Limited, priority 2021, published 2025).

What follows are substances tested on luciferase gene expression in HEK 293 cells in response to Comp. 004 (assay: Screen of riboswitch constructs with 12C6-1 variant aptamers (libraries N1-N5) against Comp. 004, luciferase in HEK 293 cells). Conditions: library N5 variant aptamers (L5, X16-X21 randomized) of 12C6-1 in riboswitch constructs; in response to Comp. 004 treatment; HEK 293 cells.
Format: cell-based, human
Method in brief: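 Riboswitch constructs carrying 12C6-1 aptamer variants, randomized in J2-4, J2-3/J3-3a/J3a-2/P3, L3a, J4-5/J5-4/P4 or L5 regions (libraries N1-N5), cloned into an intron-exon-intron cassette driving luciferase. Screened in HEK 293 cells with 25 µM Comp. 004; read-out is fold induction of gene expression versus parent Luci-12C6-1.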
In the case of “N5_7G11 (DNA CTGGGGAGTCCT; chemistry not given here)”, the “Fold (induction of luciferase gene expression)” value (from here on “Fold”) is reported as 1533.8 fold. “N5_7G12 (DNA CTGGGGAGTCCT; chemistry not given here)” was tested, and the “Fold” value was 894.6 fold. In the case of “N5_7H1 (DNA CTGGGGAGTCCT; chemistry not given here)”, the “Fold” value is reported as 158.5 fold. With “N5_7H3 (DNA CTGGGGAGTCCT; chemistry not given here)” the “Fold” value was 360.5 fold. “N5_7H4 (DNA CTGGGGAGTCCT; chemistry not given here)” was tested, and the “Fold” value was 560.0 fold. For “N5_7H5 (DNA CTGGGGAGTCCT; chemistry not given here)”, the “Fold” value was 848.4 fold. With “N5_7H9 (DNA CTGGGGAGTCCT; chemistry not given here)” the “Fold” value was 860.0 fold. “N5_7H10 (DNA CTGGGGAGTCCT; chemistry not given here)” was tested, and the “Fold” value was 713.9 fold. “N5_7H11 (DNA CTGGGGAGTCCT; chemistry not given here)” was tested, and the “Fold” value was 1105.2 fold. For “N5_7H12 (DNA CTGGGGAGTCCT; chemistry not given here)”, the “Fold” value was 1194.5 fold. In the case of “N5_8A9 (DNA CTGGGGAGTCCT; chemistry not given here)”, the “Fold” value is reported as 1090.4 fold. In the case of “N5_8C7 (DNA CTGGGGAGTCCT; chemistry not given here)”, the “Fold” value is reported as 817.6 fold. “N5_8D1 (DNA CTGGGGAGTCCT; chemistry not given here)” was tested, and the “Fold” value was 1139.6 fold. “N5_8F1 (DNA CTGGGGAGTCCT; chemistry not given here)” was tested, and the “Fold” value was 951.8 fold. For “N5_8F3 (DNA CTGGGGAGTCCT; chemistry not given here)”, the “Fold” value was 862.0 fold. For “N5_8F11 (DNA CTGGGGAGTCCT; chemistry not given here)”, the “Fold” value was 1282.8 fold. For “N5_8G9 (DNA CTGGGGAGTCCT; chemistry not given here)”, the “Fold” value was 1066.5 fold. For “N5_8H1 (DNA CTGGGGAGTCCT; chemistry not given here)”, the “Fold” value was 1191.9 fold. For “N5_8H7 (DNA CTGGGGAGTCCT; chemistry not given here)”, the “Fold” value was 1218.5 fold. For “N5_9B8 (DNA CTGGGGAGTCCT; chemistry not given here)”, the “Fold” value was 792.8 fold. With “N5_9C2 (DNA CTGGGGAGTCCT; chemistry not given here)” the “Fold” value was 1027.6 fold. With “N5_9C12 (DNA CTGGGGAGTCCT; chemistry not given here)” the “Fold” value was 1094.3 fold. For “N5_9E6 (DNA CTGGGGAGTCCT; chemistry not given here)”, the “Fold” value was 1020.7 fold. With “N5_9E12 (DNA CTGGGGAGTCCT; chemistry not given here)” the “Fold” value was 1458.4 fold. With “N5_9F1 (DNA CTGGGGAGTCCT; chemistry not given here)” the “Fold” value was 875.6 fold. For “N5_9G5 (DNA CTGGGGAGTCCT; chemistry not given here)”, the “Fold” value was 725.3 fold. With “N5_9G7 (DNA CTGGGGAGTCCT; chemistry not given here)” the “Fold” value was 937.7 fold. “N5_9H1 (DNA CTGGGGAGTCCT; chemistry not given here)” was tested, and the “Fold” value was 1494.7 fold. “N5_11B9 (CTGGGGAGTCCT; chemistry not given here)” was tested, and the “Fold” value was 1595.4 fold.
